Measured values from patent US20240207446A1, “M6A-COUPLED EFFECTOR PROTEIN EXPRESSION SYSTEM AND METHODS OF MAKING AND USING SAME” (Duke University, priority 2022, published 2024).
“Also recorded” adds a separate entry of the source.

Columns and labels:
[1] = test system: METTL3 (m^6A methylation of the GEMS reporter mRNA), HEK293T cells; assay: Western blot and densitometry (EGFP, EGFP-DHFR) in HEK293T cells expressing GEMS; assay type: cell-based, human
Experimental: Western blotting. Cells were dissociated in culture plates using TrypLE (Gibco) and collected by centrifugation (6,000 rpm, 10 minutes, 4° C.). Cell pellets were resuspended in 150 μL chilled standard RIPA buffer (1% Triton X-100, 0.1% Sodium Deoxycholate, 0.1% SDS) prepared with the addition of Complete Mini protease inhibitor (Sigma Aldrich) immediately before use. Cells were resuspended and incubated on ice in RIPA buffer for 30 minutes. Cell lysates were cleared by centrifugation (13,000 rpm, 10 minutes, 4° C.) and mixed in a 1:1 ratio with NuPage LDS sample buffer (Invitrogen) with 5% Beta-Mercaptoethanol (Sigma). Samples were separated by gel electrophoresis on NuPage 4-12% Bis-Tris SDS-PAGE gels (Invitrogen), then transferred onto PVDF membranes (Amersham) using semi-dry transfer (Trans-Blot Turbo, Biorad). Membranes were blocked with 4% milk powder in 0.1% PBST and incubated with the appropriate primary antibody overnight at 4° C. Membranes were then washed with 0.1% PBST and incubated for 1 hour at room temperature in secondary antibody. Blots were washed and incubated in chemiluminescent ECL reagent solution (Amersham) then imaged in a ChemiDoc MP imaging system (BioRad) under chemiluminescent and colorimetric light. In western blot images, cyclophilin A is shown as a loading control and all western blots are representative of a minimum of 3 independent biological replicates. The following antibodies were used in this study: GFP tag Polyclonal antibody (Proteintech, 50430-2-AP). Anti-HA rabbit monoclonal antibody (Cell Signaling, 3724). Anti-Cyclophilin A antibody (Cell Signaling, 2175S). Anti-DsRed-Express2 Monoclonal Antibody (Fisher Scientific, CF180014). Anti-METTL3 antibody (abcam, ab195352). Anti-SOCS2 antibody (abcam, ab109245). Anti-p53 (7F5) Rabbit monoclonal antibody (Cell Signaling, 2527S). Recombinant Anti-JAK2 Antibody (abcam, ab108596). Recombinant Anti-STAT5 (phosphorylated Y694) (abcam, ab32364). Anti-STAT5 antibody (Cell Signaling, 25656S). Secondary antibodies used in this study: Goat Anti-Rabbit IgG HRP (Abcam, ab6721), Goat anti-mouse IgG HRP (Fisher Scientific, 62-6520).
For densitometry analysis, western blot images were quantified using ImageJ software 58. EGFP band intensity was normalized to either EGFP-DHFR or (EGFP+EGFP-DHFR) as indicated in each experiment. Similar densitometry analysis was used to measure total protein production (EGFP+EGFP-DHFR), normalized to the Cyclophilin A loading control. At least two replicates were used for each western blot quantification analysis. Bars are plotted as mean intensity ratio and error bars represent standard deviation.

[2] = test system: m^6A in cellular mRNA, HEK293T cells; assay: Mass spectrometry of m^6A in purified mRNA; assay type: cell-based, human
Experimental: Mass spectrometry analysis. Total RNA was extracted as described above, and mRNA was purified using two rounds of oligo(dT) purification with Dynabeads oligo-(dT) mRNA purification kit (Invitrogen), followed by 2 rounds of rRNA depletion using NEBNext rRNA Depletion Kit (V2.0, NEB), and an additional two rounds of oligo(dT) purification with Dynabeads oligo-(dT) mRNA purification kit (Invitrogen). All mRNA purification steps were performed following the manufacturer's instructions. Purified mRNA quality was checked using a Bioanalyzer high sensitivity RNA analysis 6000 pico kit (Agilent). For mass spectrometry analysis, 100-200 ng of purified mRNA was incubated with 2 U of Nuclease P1 (Sigma) with 2.5 mM ZnCl and 25 mM NaCl at 37° C. for 2 hours. mRNA samples were treated with 5 U of antarctic phosphatase (NEB) for 2 h at 37° C. Samples were then processed using the Xevo TQ-S mass spectrometry system. All nucleosides were quantified by retention time and ion mass transitions of 268.2 to 133.2 (A) and 282.2 to 150.1 (m^6A). Data were plotted as a percentage of m^6A relative to A. At least 2 biological replicates were performed for each sample.

[3] = test system: METTL3 (m^6A methylation of the GEMS reporter mRNA), HEK293T cells; assay: GEMS EGFP fluorescence microscopy / quantitative microscopy in HEK293T cells; assay type: cell-based, human
Experimental: Plasmid Transfection. Transfections were performed using Fugene HD (Promega) according to the manufacturer's instructions. For METTL3 inhibition experiments, cells were treated with 10 μM or 30 μM of STM2457 (MedChemExpress) for 16 hours prior to transfection. Cells were treated with 0.1% DMSO (VWR Life Science) as a control. For experiments using METTL3 degron cells, 0.1 mg/mL of auxin or equivalent volume of H2O (control) was added to the cells for 24 hours prior to plasmid transfection.
Microscopy. All images were obtained using a Leica DMi8 inverted fluorescence microscope. Images were processed using the Leica LAS X software. 4-5 fields of view were obtained per sample, and representative images were selected for each experiment.
Quantitative Microscopy. HEK293T cells were plated in 10 cm cell culture-treated dishes at a density of 2.2×10^6 cells per plate and allowed to grow overnight. Cells were then treated with 30 μM of STM2457 or DMSO control for 16 hours. Cells were then transfected with the GEMS-PEST-DsRed plasmid and allowed to grow for an additional 16 hours. Prior to imaging, media was replaced with 1×PBS with 1 μg/mL Hoechst nuclear fluorescent stain (ThermoFisher Scientific) for 30 minutes. Cells were imaged using a Leica DMi8 fluorescence microscope. Images were analyzed by ImageJ image analysis software. First, fluorescence channels were separated and RGB fluorescence channels were converted to grayscale (16-bit). Binary image thresholds were set in relation to DsRed fluorescence signal and background noise was subtracted. Individual cells were selected, and pixel intensities were generated of each individual cell within the field of view. Similar binary image thresholding, cell selection, and intensity datasets were generated for the EGFP image channel. Data were analyzed by dividing EGFP signal intensity for each cell by average DsRed signal intensity. Data were plotted in JMP software (IMP 17.0, SAS Institute Inc.) by normalized EGFP signal intensity for each treatment. Boxplots represent interquartile range of the data and whiskers represent minimum and maximum data points excluding outliers. Statistical significance was calculated using a two-way t-test assuming unequal variance.

[4] = test system: m^6A sensor sequence and endogenous ACTB A1222; assay: RT-qPCR-based m^6A quantification in HEK293T cells; assay type: cell-based, human; details: METTL3 degron cells, auxin (FIG. 3F)
Experimental: m^6A detection using RT-qPCR. RNA was extracted and treated with DNase I as described above, and a relative quantification of m^6A by RT-qPCR was adapted from^28. 4 reverse transcription reactions were set up using 150 ng of RNA for each: 2 reactions using BstI polymerase (NEB), and 2 reactions using Superscript reverse transcriptase enzyme (Fisher Scientific). For each reverse transcriptase, one reaction included a primer adjacent (+) to the site being tested (reverse compliment reverse oligo immediately downstream of the site), and the other reaction included a primer that is non-adjacent (−) to the site. The BstI reaction consisted of 10 U BstI polymerase, […], 500 nM oligos (adjacent (+) or non-adjacent (−)), in 1× ThermoPol Buffer. Reactions were incubated in a thermal cycler with the following cycling settings: 3 minutes at 25° C., 30 minutes at 50° C., and 3 minutes at 85° C. Superscript III (SSIII) reactions consisted of 200 U Superscript III, […], 25 mM MgCl2+, 10 mM dNTPs, 500 nM oligos (adjacent or non-adjacent), 2 μL 10× FS Buffer, and water up to 20 μL. […] Threshold cycle values were obtained and relative m^6A was calculated using the formula: 2−(CT Bst(−)−Ct SSIII(−)/Ct Bst(+)−Ct SSIII(+)). […] Error bars represent standard deviation, and statistical significance was calculated using a two-way t-test assuming unequal variance.

[5] = test system: m^6A reporter mRNA; assay: RT-qPCR of m^6A reporter mRNA abundance in HEK293T cells; assay type: cell-based, human
Experimental: (§1) Sanger sequencing and RT-qPCR. Cells were dissociated in culture using TrypLE (Gibco) treatment for 2 minutes and collected by centrifugation (6,000 rpm, 10 minutes, 4° C.). RNA was extracted using the RNA easy Plus Mini kit (Qiagen) according to the manufacturer's protocol. Extracted RNA was purified for genomic and plasmid DNA contamination by incubation with 1 μL DNase I at 37° C. for 30 minutes, and purified RNA was precipitated in 2.5 volumes of isopropanol overnight. RNA quantification was performed using the Qubit 4.0 fluorometer following the Qubit RNA broad range assay kit (Invitrogen). 500 ng of RNA was used for reverse transcription with the iScript reverse transcription supermix (Biorad) following the manufacturer's protocol. PCR was then used to […] amplify the region of interest in the m^6A sensor mRNA sequence (see Table 2). PCR products were column purified before Sanger sequencing using QiaQuick spin columns (Qiagen) and 10 μL reactions were submitted for standard amplicon sequencing (Azenta Life Sciences). C-to-U editing percentage was calculated using the EditR web server 59. To measure gene expression using gene-specific oligos, qPCR was performed using iTaq universal SYBR green Supermix (Biorad). 20 μL reactions were set up with 1 μL of cDNA for each sample, in 3 technical replicates. qPCR was performed on a Biorad CFX Duet real-time PCR instrument, and results were analyzed by normalizing threshold cycle of each target gene to 18S rRNA according to established methods^60. At least 2 biological replicates were used for each sample, and results are plotted as mean relative fold expression comparing treatment to the control group as indicated. Error bars represent standard deviation, and statistical significance was calculated using a two-way t-test assuming unequal variance.

[6] = test system: m^6A sensor sequence; assay: RT-PCR/Sanger sequencing of C-to-U editing of the m^6A sensor sequence in HEK293T cells; assay type: cell-based, human
Experimental: as §1

[7] = test system: MOLM-13 cells; details: AML cell line with high levels of METTL3; cited from earlier work
[8] = test system: Huh-7 cells; assay: RT-qPCR gene expression in Huh-7 cells; assay type: cell-based, human; details: increasing amounts of STM2457 (FIG. 9C)
Experimental: as §1, with “PCR products were column purified before Sanger sequencing using QiaQuick spin columns (Qiagen) and 10 μL reactions were submitted for standard amplicon sequencing (Azenta Life Sciences).” left out, “To measure gene expression using gene-specific oligos, qPCR was performed using iTaq universal SYBR green Supermix (Biorad).” left out, “At least 2 biological replicates were used for each sample, and results are plotted as mean relative fold expression comparing treatment to the control group as indicated.” left out

O=C(O)Cc1c[nH]c2ccccc12 [auxin]
total reporter mRNA protein production (EGFP+EGFP-DHFR) relative to cyclophilin A ([1]; METTL3 degron cells expressing GEMS (FIG. 3H)): no significant difference | METTL3 and EGFP protein, western blot ([1]; METTL3 degron cells, auxin (FIG. 3C)): loss of METTL3 and EGFP | EGFP/EGFP-DHFR ratio ([1]; METTL3 degron cells, auxin (FIG. 3D)): decrease in EGFP/EGFP-DHFR | m^6A in purified mRNA, mass spectrometry ([2]; METTL3 degron cells, auxin-treated (FIG. 3A)): decrease in m^6A | EGFP fluorescence from the GEMS system ([3]; HEK293T METTL3 degron cells, auxin (FIG. 3B)): reduced EGFP fluorescence | m^6A sensor sequence methylation, RT-qPCR [4]: decreased m^6A | m^6A reporter mRNA expression, RT-qPCR ([5]; METTL3 degron cells with and without auxin (FIG. 3G)): no significant difference | C-to-U editing of the m^6A sensor sequence ([6]; METTL3 degron cells, auxin (FIG. 3E)): Editing is reduced

STM2457
EGFP/EGFP-DHFR ratio, densitometry ([1]; HEK293T, 30 μM STM2457, 24 h (FIG. 5D)): reduced EGFP/EGFP-DHFR ratio | production of EGFP protein, western blot ([1]; HEK293T, 10 or 30 μM STM2457 (FIG. 5F)): decreased production of EGFP protein with increasing doses | EGFP protein, western blot ([1]; HEK293T, STM2457-treated (FIG. 5C)): decreased EGFP protein | production of EGFP protein, western blot, GEMS with EGFP-PEST ([1]; HEK293T, increasing doses of STM2457 (FIG. 5M)): decreased production of EGFP protein with increasing doses | proliferation and colony formation [7]: reduced proliferation and colony formation | m^6A in purified mRNA, mass spectrometry ([2]; HEK293T, STM2457 treatment (FIG. 5H)): depletion of m^6A | EGFP fluorescence from the GEMS system ([3]; HEK293T, 30 μM STM2457, 24 h (FIG. 5A)): reduced | EGFP fluorescence intensity, quantitative microscopy ([3]; HEK293T, 30 μM STM2457, EGFP normalized to DsRed (FIG. 5B)): significant reduction | m^6A-coupled EGFP fluorescence ([3]; HEK293T, 10 or 30 μM STM2457, 24 h, DsRed internal control (FIG. 5E)): increased depletion | EGFP signal, GEMS with EGFP-PEST ([3]; HEK293T, 10 or 30 μM STM2457, GEMS-EGFP-PEST, compared to GEMS-EGFP (FIG. 5L)): greater depletion at lower doses | EGFP fluorescence / GEMS activity activated by dCas13-GEMS ([3]; HEK293T, STM2457 for 16 hours, then dCas13-GEMS and gRNAs (FIG. 8F)): abolished; also recorded: decreased | abundance of the m^6A reporter mRNA ([5]; HEK293T, 30 μM STM2457 or DMSO (FIG. 5I)): no significant difference | C-to-U editing of the m^6A sensor sequence ([6]; HEK293T, 30 μM STM2457, 24 h (FIG. 5J)): reduced C-to-U editing | editing of the m^6A sensor sequence ([6]; HEK293T, 10 or 30 μM STM2457 (FIG. 5G)): decreased editing with increasing amounts | editing of the m^6A sensor sequence, GEMS with EGFP-PEST ([6]; HEK293T, increasing amounts of STM2457 (FIG. 5N)): decreased editing with increasing amounts | SOCS2 mRNA expression, RT-qPCR [8]: dose-dependent increase

C[C@@H]1C[C@@H]([C@H](O)CC2CC(=O)NC(=O)C2)C(=O)[C@@H](C)C1 [cycloheximide]
m^6A reporter mRNA levels ([5]; HEK293T with GEMS, cycloheximide 0-120 minutes (FIG. 3I)): no effect
